{"source": "ChEMBL document CHEMBL3352656", "about": "(Bioorg Med Chem Lett, 2015)", "key": {"[1]": {"experiment": "Permeability from basolateral to apical side in human Caco2 cells by HPLC-MS/MS method", "type": "ADME, cell-based", "conditions": "Caco-2, read-out: permeability"}, "[2]": {"experiment": "Oral bioavailability in Wistar rat at […] by HPLC-MS/MS method", "type": "ADME, organism-based", "conditions": "in vivo"}, "[3]": {"experiment": "Permeability from apical to basolateral side in human Caco2 cells by HPLC-MS/MS method", "type": "ADME, cell-based", "conditions": "Caco-2, read-out: permeability"}, "[4]": {"experiment": "Mean residence time in Wistar rat at 0.4 mg/kg, iv by HPLC-MS/MS method", "type": "ADME, organism-based", "set-up": "dose 0.4 mg/kg, route intravenous", "conditions": "in vivo"}, "[5]": {"experiment": "Volume of distribution at steady state in Wistar rat at 0.4 mg/kg, iv by HPLC-MS/MS method", "type": "ADME, organism-based", "set-up": "dose 0.4 mg/kg, route intravenous", "conditions": "in vivo, read-out: Vdss"}}, "data": [{"smiles": "CC(C)(C)c1cc(NC(=O)[C@@H]2CCCCN2C(=O)N2CCS(=O)(=O)CC2)no1", "values": [{"measurement": "Papp B→A", "setting": "[1]", "result": 22, "unit": "×10⁻⁶ cm/s"}, {"measurement": "bioavailability", "setting": "[2]", "result": 62, "unit": "%"}, {"measurement": "Papp A→B", "setting": "[3]", "result": 20, "unit": "×10⁻⁶ cm/s"}, {"measurement": "MRT", "setting": "[4]", "result": 36, "unit": "min"}, {"measurement": "Vd", "setting": "[5]", "result": 0.5, "unit": "L/kg"}]}]}
